ChEMBL document CHEMBL1159341, “Bistratamides E-J, modified cyclic hexapeptides from the Philippines ascidian Lissoclinum bistratum” (J Nat Prod, 2003)
Values after ≈ are worked out from the molar mass of the structure shown.

What follows are molecules tested on HCT-116 (assay: Cytotoxicity against human HCT116 cells).
Assay type: functional, cell-based
In the case of `CC(C)[C@@H]1NC(=O)c2csc(n2)[C@H](C(C)C)NC(=O)c2csc(n2)[C@H](C(C)C)NC(=O)[C@H]2N=C1O[C@@H]2C` [BISTRATAMIDE E], the IC50 is reported as 7.9 µg/mL (≈ 14.4 µM). `CC(C)[C@@H]1NC(=O)[C@H]2N=C(O[C@@H]2C)[C@H](C(C)C)NC(=O)c2csc(n2)[C@H](C(C)C)NC(=O)[C@@H]2COC1=N2` [BISTRATAMIDE F] gave an IC50 of 28 µg/mL (≈ 52.6 µM). `Cc1oc2nc1C(=O)N[C@@H](C(C)C)c1nc(co1)C(=O)N[C@@H](C(C)C)c1nc(cs1)C(=O)N[C@H]2C(C)C` [BISTRATAMIDE G] was tested, and the IC50 was 5 µg/mL (≈ 9.46 µM). Work on `Cc1oc2nc1C(=O)N[C@@H](C(C)C)c1nc(cs1)C(=O)N[C@@H](C(C)C)c1nc(cs1)C(=O)N[C@H]2C(C)C` [BISTRATAMIDE H] yielded an IC50 of 1.7 µg/mL (≈ 3.12 µM). With `CC(C)[C@@H]1NC(=O)c2csc(n2)[C@H](C(C)C)NC(=O)c2coc(n2)[C@H](C(C)C)NC(=O)[C@H]([C@@H](C)O)NC1=O` [BISTRATAMIDE I] the IC50 was 9 µg/mL (≈ 16.4 µM). `CC(C)[C@@H]1NC(=O)c2csc(n2)[C@H](C(C)C)NC(=O)c2csc(n2)[C@H](C(C)C)NC(=O)[C@H]([C@@H](C)O)NC1=O` [BISTRATAMIDE J] was tested, and the IC50 was 1 µg/mL (≈ 1.77 µM).
